Experimental data taken from PMC11162475, “Rule-based omics mining reveals antimicrobial macrocyclic peptides against drug-resistant clinical isolates” (Nature Communications, 2024).
Converted amounts (≈) assume the structure as drawn.

Tests used:
Bacillus subtilis 168 = experiment: microbe, parasite or virus in culture; format: cell-based; conditions: Bacillus subtilis, 168, 20 h
Method: (§1) For MIC determination, Staphylococcus aureus ATCC25923, Bacillus subtilis 168, Micrococcus luteus DSM1790, Enterococcus faecalis OG1RF, Enterococcus faecium MCC2763, Escherichia coli DH5α and Pseudomonas aeruginosa PAO1 were used as indicator strains. Nisin and vancomycin were used as positive controls. A dilution series of massatide A, massatide B, vancomycin (16, 8, 4, 2, 1, 0.5, 0.25, 0.125, 0.0625, 0.0313 μg/mL) and sistertide A1, kebanetide A1, kebanetide A2, nisin (64, 32, 16, 8, 4, 2, 1, 0.5, 0.25, 0.125 μg/mL) were prepared in 96-well plate from 1–10th column. The indicator strains were added to the compound-containing well. The indicator strain culture with no antibiotics was prepared in the 11th column. The 12th column was filled with 200 μL empty MHB medium. The 96-well plate was incubated at 37 °C for 20 h (30 °C for M. luteus and B. subtilis). The OD600 was detected on MULTISKAN Sky (Thermo Scientific) and MIC values were determined. The MIC values of clinical isolates were determined by Sichuan Primed Shines Bio-tech Co., Ltd. (China) following similar protocol. Levofloxacin was used as a positive control.

[1] = test system: Enterococcus faecium MCC2763; experiment: microbe, parasite or virus in culture; format: cell-based; conditions: Enterococcus faecium, MCC2763, 20 h
Method: as §1

[2] = test system: Micrococcus luteus DSM1790; experiment: microbe, parasite or virus in culture; format: cell-based; conditions: Micrococcus luteus, DSM1790, 20 h
Method: as §1

[3] = test system: Staphylococcus aureus ATCC25923; experiment: microbe, parasite or virus in culture; format: cell-based; conditions: Staphylococcus aureus, ATCC25923, 20 h
Method: as §1

[4] = test system: Enterococcus faecalis OG1RF; experiment: microbe, parasite or virus in culture; format: cell-based; conditions: Enterococcus faecalis, OG1RF, 20 h
Method: as §1

S. aureus ATCC 25923 [5] = experiment: Time-dependent killing assay; format: cell-based, Staphylococcus aureus; conditions: time-killing assay
Method: Time-dependent killing assay
An overnight culture of S. aureus ATCC 25923 cells was diluted at 1:10,000 in MHB medium and incubated at 37 ℃, 200 rpm for 2 hours to reach the early exponential.
Then, massatide A or vancomycin was added to the culture at the concentration of 10×MIC. Bacteria were still cultivated at 37 ℃, 200 rpm. Culture with no antibiotics was used as a negative control. 10 μL aliquots were removed at intervals, centrifuged, and resuspended in 1 ml PBS. Serially diluted (10-fold) suspensions were plated on MHB agar and incubated at 37 ℃ overnight for counting of colony-forming units.
(§2) Experiments were performed in triplicate. […]

S. aureus ATCC 25923 [6] = conditions: 25 days of serial passaging, control antibiotic
Method: was used as a negative control.
Experiments were performed in triplicate.
The experiment was performed in triplicate.

S. aureus ATCC 25923 [7] = experiment: Lysis of S. aureus culture; format: cell-based, Staphylococcus aureus; conditions: S. aureus ATCC 25923 culture OD600 1.0, 10×MIC, 24 h
Method: Growth kinetics of S. aureus
Massatide A or B was prepared in a 96-well plate at the concentration of 8×MIC, 4×MIC, 2×MIC, 1×MIC and 0.5×MIC , respectively. The MHB medium with no compound was used as a control. Then, the overnight culture of S. aureus ATCC 25923 cells was added to the medium at 1:1,000. The plate was incubated with shaking in SpectraMax iD3 (MOLECULAR DEVICES) at 30 ℃. OD600 was measured every 30 min for 36 hours. To analyze the lysis, 1mL of S. aureus ATCC 25923 culture (OD600 1.0) was treated with massatide A or vancomycin (10×MIC) for 24h. An untreated sample was used as a negative control. […]
as §2

## CN[C@H](CC(C)C)C(=O)N[C@H]1C(=O)N[C@@H](CC(N)=O)C(=O)N[C@H]2C(=O)N[C@H]3C(=O)N[C@H](C(=O)N[C@H](C(=O)O)c4cc(O)cc(O)c4-c4cc3ccc4O)[C@H](O)c3ccc(c(Cl)c3)Oc3cc2cc(c3O[C@@H]2O[C@H](CO)[C@@H](O)[C@H](O)[C@H]2O[C@H]2C[C@](C)(N)[C@H](O)[C@H](C)O2)Oc2ccc(cc2Cl)[C@H]1O [Vancomycin, reference compound]
Bacillus subtilis 168
  MIC: 0.125 µg/mL (≈ 0.0863 µM)
[1]
  MIC: 1 µg/mL (≈ 0.69 µM)
[2]
  MIC: 0.125 µg/mL (≈ 0.0863 µM)
[3]
  MIC: 1 µg/mL (≈ 0.69 µM)
[4]
  MIC: 2 µg/mL (≈ 1.38 µM)
S. aureus ATCC 25923 [5]; time 0 h, log of mean of 3 replicates
  log(CFU/mL): 6.907 log(CFU/mL)
S. aureus ATCC 25923 [5]; time 0 h, mean of 3 replicates
  CFU/mL: 8080000 CFU/mL
S. aureus ATCC 25923 [5]; time 0 h, replicate 1
  CFU/mL: 8440000 CFU/mL
  log(CFU/mL): 6.926 log(CFU/mL)
S. aureus ATCC 25923 [5]; time 0 h, replicate 2
  CFU/mL: 8020000 CFU/mL
  log(CFU/mL): 6.904 log(CFU/mL)
S. aureus ATCC 25923 [5]; time 0 h, replicate 3
  CFU/mL: 7780000 CFU/mL
  log(CFU/mL): 6.891 log(CFU/mL)
S. aureus ATCC 25923 [5]; time 1 h, log of mean of 3 replicates
  log(CFU/mL): 6.695 log(CFU/mL)
S. aureus ATCC 25923 [5]; time 1 h, mean of 3 replicates
  CFU/mL: 4950000 CFU/mL
S. aureus ATCC 25923 [5]; time 1 h, replicate 1
  CFU/mL: 5360000 CFU/mL
  log(CFU/mL): 6.729 log(CFU/mL)
S. aureus ATCC 25923 [5]; time 1 h, replicate 2
  CFU/mL: 5200000 CFU/mL
  log(CFU/mL): 6.716 log(CFU/mL)
S. aureus ATCC 25923 [5]; time 1 h, replicate 3
  CFU/mL: 4290000 CFU/mL
  log(CFU/mL): 6.632 log(CFU/mL)
S. aureus ATCC 25923 [5]; time 3 h, log of mean of 3 replicates
  log(CFU/mL): 6.685 log(CFU/mL)
S. aureus ATCC 25923 [5]; time 3 h, mean of 3 replicates
  CFU/mL: 4836667 CFU/mL
S. aureus ATCC 25923 [5]; time 3 h, replicate 1
  CFU/mL: 4940000 CFU/mL
  log(CFU/mL): 6.694 log(CFU/mL)
S. aureus ATCC 25923 [5]; time 3 h, replicate 2
  CFU/mL: 4850000 CFU/mL
  log(CFU/mL): 6.686 log(CFU/mL)
S. aureus ATCC 25923 [5]; time 3 h, replicate 3
  CFU/mL: 4720000 CFU/mL
  log(CFU/mL): 6.674 log(CFU/mL)
S. aureus ATCC 25923 [5]; time 7 h, log of mean of 3 replicates
  log(CFU/mL): 5.899 log(CFU/mL)
S. aureus ATCC 25923 [5]; time 7 h, mean of 3 replicates
  CFU/mL: 791667 CFU/mL
S. aureus ATCC 25923 [5]; time 7 h, replicate 1
  CFU/mL: 695000 CFU/mL
  log(CFU/mL): 5.842 log(CFU/mL)
S. aureus ATCC 25923 [5]; time 7 h, replicate 2
  CFU/mL: 770000 CFU/mL
  log(CFU/mL): 5.886 log(CFU/mL)
S. aureus ATCC 25923 [5]; time 7 h, replicate 3
  CFU/mL: 910000 CFU/mL
  log(CFU/mL): 5.959 log(CFU/mL)
S. aureus ATCC 25923 [5]; time 26 h, log of mean of 3 replicates
  log(CFU/mL): 3.724 log(CFU/mL)
S. aureus ATCC 25923 [5]; time 26 h, mean of 3 replicates
  CFU/mL: 5300 CFU/mL
S. aureus ATCC 25923 [5]; time 26 h, replicate 1
  CFU/mL: 5500 CFU/mL
  log(CFU/mL): 3.74 log(CFU/mL)
S. aureus ATCC 25923 [5]; time 26 h, replicate 2
  CFU/mL: 5400 CFU/mL
  log(CFU/mL): 3.732 log(CFU/mL)
S. aureus ATCC 25923 [5]; time 26 h, replicate 3
  CFU/mL: 5000 CFU/mL
  log(CFU/mL): 3.699 log(CFU/mL)
S. aureus ATCC 25923 [6]
  shift of MIC during serial passaging: absence of a shift
S. aureus ATCC 25923 [7]
  lysis of the cell culture: the same as vancomycin
